Read-outs that look alike come from different tables or passages of the source. Bounds are passed on as bounds.

The target of this experiment is hNav1.7 (Homo sapiens, UniProt Q15858). Kind of experiment: cell-based. To be noted: for IC50: PatchXpress, read-out: PX hNav1.7 Tonic IC50; for Nav1.4/Nav1.7 / Nav1.5/Nav1.7: ratio of PX tonic IC50 values. The experiment is classed as cell-based.
Sequence of hNav1.7 (Q15858 whole entry): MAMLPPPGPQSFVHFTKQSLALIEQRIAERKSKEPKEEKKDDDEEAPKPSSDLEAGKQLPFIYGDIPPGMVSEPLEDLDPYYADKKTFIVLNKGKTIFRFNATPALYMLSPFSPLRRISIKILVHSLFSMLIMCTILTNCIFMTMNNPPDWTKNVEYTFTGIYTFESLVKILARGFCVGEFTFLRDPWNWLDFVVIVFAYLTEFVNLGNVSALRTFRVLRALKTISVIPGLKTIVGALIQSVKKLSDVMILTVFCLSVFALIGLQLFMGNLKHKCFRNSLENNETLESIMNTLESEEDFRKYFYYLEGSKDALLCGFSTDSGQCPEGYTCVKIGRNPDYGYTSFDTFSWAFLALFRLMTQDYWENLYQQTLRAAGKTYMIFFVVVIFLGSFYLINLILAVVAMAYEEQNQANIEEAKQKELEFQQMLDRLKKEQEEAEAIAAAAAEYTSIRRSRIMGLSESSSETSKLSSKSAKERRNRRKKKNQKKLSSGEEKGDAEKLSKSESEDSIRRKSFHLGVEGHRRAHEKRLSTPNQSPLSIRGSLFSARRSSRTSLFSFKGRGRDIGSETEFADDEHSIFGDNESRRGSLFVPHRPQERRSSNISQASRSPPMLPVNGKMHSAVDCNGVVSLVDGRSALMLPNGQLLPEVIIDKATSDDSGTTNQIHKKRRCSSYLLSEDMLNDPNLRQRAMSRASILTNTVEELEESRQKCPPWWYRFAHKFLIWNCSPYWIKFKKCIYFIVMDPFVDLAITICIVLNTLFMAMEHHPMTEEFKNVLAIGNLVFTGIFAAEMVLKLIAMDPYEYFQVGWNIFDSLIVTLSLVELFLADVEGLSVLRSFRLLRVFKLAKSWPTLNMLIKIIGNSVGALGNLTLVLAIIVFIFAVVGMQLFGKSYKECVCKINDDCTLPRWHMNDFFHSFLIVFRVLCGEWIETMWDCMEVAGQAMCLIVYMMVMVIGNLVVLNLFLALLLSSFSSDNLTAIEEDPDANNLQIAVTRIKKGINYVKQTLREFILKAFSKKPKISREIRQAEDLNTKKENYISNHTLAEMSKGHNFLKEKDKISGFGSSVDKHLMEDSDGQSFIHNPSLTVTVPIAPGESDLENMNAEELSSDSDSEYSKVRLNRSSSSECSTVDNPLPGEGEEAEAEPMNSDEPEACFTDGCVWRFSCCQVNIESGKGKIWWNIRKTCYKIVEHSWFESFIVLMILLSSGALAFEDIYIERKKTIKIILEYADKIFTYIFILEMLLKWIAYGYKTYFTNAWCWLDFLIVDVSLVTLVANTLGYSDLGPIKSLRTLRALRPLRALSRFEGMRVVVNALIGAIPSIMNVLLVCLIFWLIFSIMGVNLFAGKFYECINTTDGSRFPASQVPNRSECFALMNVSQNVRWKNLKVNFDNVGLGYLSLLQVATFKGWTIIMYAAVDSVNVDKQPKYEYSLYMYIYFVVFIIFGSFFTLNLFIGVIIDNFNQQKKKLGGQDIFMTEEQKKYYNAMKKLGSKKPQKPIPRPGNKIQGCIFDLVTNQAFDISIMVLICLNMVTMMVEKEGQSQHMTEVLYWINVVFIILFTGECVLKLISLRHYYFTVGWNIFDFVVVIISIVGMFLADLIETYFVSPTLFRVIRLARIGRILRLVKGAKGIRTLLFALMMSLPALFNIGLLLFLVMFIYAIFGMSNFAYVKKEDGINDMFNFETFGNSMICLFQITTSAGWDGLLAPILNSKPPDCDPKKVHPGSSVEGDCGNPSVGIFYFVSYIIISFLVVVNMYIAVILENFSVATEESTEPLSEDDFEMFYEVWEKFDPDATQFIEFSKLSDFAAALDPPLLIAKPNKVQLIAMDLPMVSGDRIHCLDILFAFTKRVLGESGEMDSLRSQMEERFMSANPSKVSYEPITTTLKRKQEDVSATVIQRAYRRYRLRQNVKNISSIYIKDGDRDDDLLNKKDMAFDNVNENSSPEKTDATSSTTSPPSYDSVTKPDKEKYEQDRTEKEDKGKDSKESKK

As usually defined, the IC50 is the concentration at which inhibition is half-maximal. For the compound `CC[C@H](C)[C@H](NC(=O)[C@@H](NC(=O)[C@H](CCCCN)NC(=O)[C@H](CCC(=O)O)NC(=O)[C@@H]1CSSC[C@@H]2NC(=O)[C@H](C)NC(=O)[C@H](CCCNC(=N)N)NC(=O)[C@H](CCCCN)NC(=O)[C@H](CO)NC(=O)[C@H](CC(=O)O)NC(=O)[C@@H]3CSSC[C@H](NC(=O)[C@H](CCCNC(=N)N)NC(=O)[C@H](CC(C)C)NC(=O)CNC(=O)[C@H](CCC(=O)O)NC(=O)[C@H](CSSC[C@H](NC(=O)[C@@H](N)Cc4ccc(O)cc4)C(=O)N[C@@H](CCC(N)=O)C(=O)N[C@@H](CCCCN)C(=O)N[C@@H](Cc4c[nH]c5ccccc45)C(=O)N[C@@H](CCSC)C(=O)N[C@@H](Cc4c[nH]c5ccccc45)C(=O)N[C@@H]([C@@H](C)O)C(=O)N3)NC2=O)C(=O)N[C@@H](CCCCN)C(=O)N[C@@H](CC(C)C)C(=O)N[C@@H](Cc2c[nH]c3ccccc23)C(=O)N1)[C@@H](C)CC)C(N)=O` [compound 67], the IC50 (tonic, Table 11) was greater than 1000 nM. Regarding `CCCC[C@@H]1NC(=O)[C@H](Cc2c[nH]c3ccccc23)NC(=O)[C@H](CCCCN)NC(=O)[C@H](CCC(N)=O)NC(=O)[C@@H](NC(=O)[C@H](Cc2ccc(O)cc2)NC(=O)[C@@H](N)CC(C)C)CSSC[C@@H]2NC(=O)[C@@H]3CSSC[C@@H](C(=O)N[C@@H](CCCNC(=N)N)C(=O)N[C@@H](CCCCN)C(=O)N[C@H](C(=O)N[C@H](C(N)=O)[C@@H](C)CC)[C@@H](C)CC)NC(=O)[C@H](Cc4c[nH]c5ccccc45)NC(=O)[C@H](CC(C)C)NC(=O)[C@H](CCCCN)NC(=O)[C@H](CSSC[C@H](NC(=O)[C@H]([C@@H](C)O)NC(=O)[C@H](Cc4c[nH]c5ccccc45)NC1=O)C(=O)N[C@@H](CC(=O)O)C(=O)N[C@@H](CO)C(=O)N[C@@H](CCCCN)C(=O)N[C@@H](CCCNC(=N)N)C(=O)N[C@@H](C)C(=O)N3)NC(=O)[C@H](CCCNC(=N)N)NC(=O)[C@H](CC(C)C)NC(=O)CNC(=O)[C@H](CCC(=O)O)NC2=O` [compound 361], where the note is “Table 11”, the Nav1.4/Nav1.7 amounted to 0 and the Nav1.5/Nav1.7 came to 0.

For the compound `C#CC[C@H](N)C(=O)N[C@@H](Cc1ccc(O)cc1)C(=O)N[C@H]1CSSC[C@@H]2NC(=O)[C@@H]3CSSC[C@@H](C(=O)N[C@@H](CCCNC(=N)N)C(=O)N[C@@H](CCCCN)C(=O)NCC(=O)N[C@H](C(N)=O)[C@@H](C)CC)NC(=O)[C@H](Cc4c[nH]c5ccccc45)NC(=O)[C@H](CC(C)C)NC(=O)[C@H](CCCCN)NC(=O)[C@H](CSSC[C@H](NC(=O)[C@H]([C@@H](C)O)NC(=O)[C@H](Cc4c[nH]c5ccccc45)NC(=O)[C@H](CCCC)NC(=O)[C@H](Cc4c[nH]c5ccccc45)NC(=O)[C@H](CCCCN)NC(=O)[C@H](CCC(N)=O)NC1=O)C(=O)N[C@@H](CC(=O)O)C(=O)N[C@@H](CO)C(=O)N[C@@H](CCCCN)C(=O)N[C@@H](CCCNC(=N)N)C(=O)N[C@@H](C)C(=O)N3)NC(=O)[C@H](CCCNC(=N)N)NC(=O)[C@H](CC(C)C)NC(=O)CNC(=O)[C@H](CCC(=O)O)NC2=O` [compound 651], the half-maximal inhibitory concentration (IC50) (Table 12, tonic block) came to 3.14 nM. Turning to `CCCC[C@H](NC(=O)[C@H](Cc1ccc(O)cc1)NC(=O)[C@H](CCCCN)NC(=O)[C@H](CCCNC(=N)N)NC(=O)[C@@H]1CSSC[C@@H]2NC(=O)[C@H](C)NC(=O)[C@H](CCCNC(=N)N)NC(=O)[C@H](CCCCN)NC(=O)[C@H](CO)NC(=O)[C@H](CC(=O)O)NC(=O)[C@@H]3CSSC[C@H](NC(=O)[C@H](CCC(=O)O)NC(=O)[C@H](CC(C)C)NC(=O)CNC(=O)[C@H](CCC(=O)O)NC(=O)[C@H](CSSC[C@H](NC(=O)[C@@H](N)Cc4ccc(O)cc4)C(=O)N[C@@H](CCC(N)=O)C(=O)N[C@@H](CCCCN)C(=O)N[C@@H](Cc4c[nH]c5ccccc45)C(=O)N[C@@H](CCSC)C(=O)N[C@@H](Cc4c[nH]c5ccccc45)C(=O)N[C@@H]([C@@H](C)O)C(=O)N3)NC2=O)C(=O)N[C@@H](CCCCN)C(=O)N[C@@H](CC(C)C)C(=O)N[C@@H](Cc2c[nH]c3ccccc23)C(=O)N1)C(N)=O` [compound 239], under “Table 11”, the Nav1.4/Nav1.7 was 127 and the Nav1.5/Nav1.7 was greater than 1575. In the case of `C#CC[C@H](N)C(=O)N[C@@H](Cc1ccc(O)cc1)C(=O)N[C@H]1CSSC[C@@H]2NC(=O)[C@@H]3CSSC[C@@H](C(=O)N[C@@H](CCCNC(=N)N)C(=O)N[C@@H](CCCCN)C(=O)N[C@@H](CCC(=O)O)C(=O)N[C@H](C(N)=O)[C@@H](C)CC)NC(=O)[C@H](Cc4c[nH]c5ccccc45)NC(=O)[C@H](CC(C)C)NC(=O)[C@H](CCCCN)NC(=O)[C@H](CSSC[C@H](NC(=O)[C@H]([C@@H](C)O)NC(=O)[C@H](Cc4c[nH]c5ccccc45)NC(=O)[C@H](CCCC)NC(=O)[C@H](Cc4c[nH]c5ccccc45)NC(=O)[C@H](CCC(N)=O)NC(=O)[C@H](CCC(N)=O)NC1=O)C(=O)N[C@@H](CC(=O)O)C(=O)N[C@@H](CO)C(=O)N[C@@H](CCCCN)C(=O)N[C@@H](CCCNC(N)=O)C(=O)N[C@@H](C)C(=O)N3)NC(=O)[C@H](CCCNC(=N)N)NC(=O)[C@H](CC(C)C)NC(=O)CNC(=O)[C@H](CCC(=O)O)NC2=O` [compound 807], the IC50 (Table 12, tonic block) is 20.9 nM. With `C#CC[C@H](N)C(=O)N[C@@H](Cc1ccc(O)cc1)C(=O)N[C@H]1CSSC[C@@H]2NC(=O)[C@@H]3CSSC[C@@H](C(=O)N[C@@H](CCCNC(=N)N)C(=O)N[C@@H](CCCCN)C(=O)N[C@@H](CCC(=O)O)C(=O)N[C@H](C(N)=O)[C@@H](C)CC)NC(=O)[C@H](Cc4c[nH]c5ccccc45)NC(=O)[C@H](CC(C)C)NC(=O)[C@H](CCCCN)NC(=O)[C@H](CSSC[C@H](NC(=O)[C@H]([C@@H](C)O)NC(=O)[C@H](Cc4c[nH]c5ccccc45)NC(=O)[C@H](CCCC)NC(=O)[C@H](Cc4ccc5ccccc5c4)NC(=O)[C@H](CCCCN)NC(=O)[C@H](CCC(N)=O)NC1=O)C(=O)N[C@@H](CC(=O)O)C(=O)N[C@@H](CO)C(=O)N[C@@H](CCCCN)C(=O)N[C@@H](CCCNC(=N)N)C(=O)N[C@@H](C)C(=O)N3)NC(=O)[C@H](CCCNC(=N)N)NC(=O)[C@H](CC(C)C)NC(=O)CNC(=O)[C@H](CCC(=O)O)NC2=O` [compound 842], where the note is “Table 12, tonic block”, the 50% inhibitory concentration (IC50) turned out to be 21.7 nM. With `CCCC[C@@H]1NC(=O)[C@H](Cc2c[nH]c3ccccc23)NC(=O)[C@H](CCCCN)NC(=O)[C@H](CCC(N)=O)NC(=O)[C@@H](NC(=O)[C@H](Cc2ccc(O)cc2)NC(=O)[C@H](N)Cc2ccccc2)CSSC[C@@H]2NC(=O)[C@@H]3CSSC[C@@H](C(=O)N[C@@H](CCCNC(=N)N)C(=O)N[C@@H](CCCCN)C(=O)N[C@H](C(=O)N[C@H](C(N)=O)[C@@H](C)CC)[C@@H](C)CC)NC(=O)[C@H](Cc4c[nH]c5ccccc45)NC(=O)[C@H](CC(C)C)NC(=O)[C@H](CCCCN)NC(=O)[C@H](CSSC[C@H](NC(=O)[C@H]([C@@H](C)O)NC(=O)[C@H](Cc4c[nH]c5ccccc45)NC1=O)C(=O)N[C@@H](CC(=O)O)C(=O)N[C@@H](CO)C(=O)N[C@@H](CCCCN)C(=O)N[C@@H](CCCNC(=N)N)C(=O)N[C@@H](C)C(=O)N3)NC(=O)[C@H](CCCNC(=N)N)NC(=O)[C@H](CC(C)C)NC(=O)CNC(=O)[C@H](CCC(=O)O)NC2=O` [compound 374], under “Table 11”, the Nav1.4/Nav1.7 was 19 and the Nav1.5/Nav1.7 is given as 1757.

`C#CC[C@H](N)C(=O)N[C@@H](Cc1ccc(O)cc1)C(=O)N[C@H]1CSSC[C@@H]2NC(=O)[C@@H]3CSSC[C@@H](C(=O)N[C@@H](CCCNC(=N)N)C(=O)N[C@@H](CCCCN)C(=O)N[C@@H](CCC(=O)O)C(=O)N[C@H](C(N)=O)[C@@H](C)CC)NC(=O)[C@H](Cc4c[nH]c5ccccc45)NC(=O)[C@H](CC(C)C)NC(=O)[C@H](CCC(N)=O)NC(=O)[C@H](CSSC[C@H](NC(=O)[C@H]([C@@H](C)O)NC(=O)[C@H](Cc4c[nH]c5ccccc45)NC(=O)[C@H](CCCC)NC(=O)[C@H](Cc4c[nH]c5ccccc45)NC(=O)[C@H](CCCCN)NC(=O)[C@H](CCC(N)=O)NC1=O)C(=O)N[C@@H](CC(=O)O)C(=O)N[C@@H](CO)C(=O)N[C@@H](CCCCN)C(=O)N[C@@H](CCCNC(=N)N)C(=O)N[C@@H](C)C(=O)N3)NC(=O)[C@H](CCCNC(=N)N)NC(=O)[C@H](CC(C)C)NC(=O)CNC(=O)[C@H](CCC(=O)O)NC2=O` [compound 804]: the concentration for half-maximal inhibition (IC50) (Table 12, tonic block) was 35.3 nM. On the same count and under the same terms, the value for `C#CC[C@H](N)C(=O)N[C@@H](Cc1ccc(O)cc1)C(=O)N[C@H]1CSSC[C@@H]2NC(=O)[C@@H]3CSSC[C@@H](C(=O)N[C@@H](CCCNC(=N)N)C(=O)N[C@@H](CCCCN)C(=O)N[C@@H](CCC(=O)O)C(=O)N[C@H](C(N)=O)[C@@H](C)CC)NC(=O)[C@H](Cc4c[nH]c5ccccc45)NC(=O)[C@H](CC(C)C)NC(=O)[C@H](CCCCN)NC(=O)[C@H](CSSC[C@H](NC(=O)[C@H]([C@@H](C)O)NC(=O)[C@H](Cc4c[nH]c5ccccc45)NC(=O)[C@H](CCCC)NC(=O)[C@H](Cc4c[nH]c5ccccc45)NC(=O)[C@H](CCCCN)NC(=O)[C@H](CCC(N)=O)NC1=O)C(=O)N[C@@H](CC(=O)O)C(=O)N[C@@H](CO)C(=O)N[C@@H](CCCCN)C(=O)N[C@@H](CCCNC(=N)N)C(=O)N[C@@H](C)C(=O)N3)NC(=O)[C@H](CCCNC(=N)N)NC(=O)[C@H](CC(C)C)NC(=O)[C@H](CCC(=O)O)NC(=O)[C@H](CCC(=O)O)NC2=O` [compound 719] was greater than 1000 nM. The same measure, in the same setting: the result for `C#CC[C@@H]1NC(=O)[C@H](CO)NC(=O)[C@H](CC(=O)O)NC(=O)[C@@H]2CSSC[C@@H]3NC(=O)[C@H](CCCNC(=N)N)NC(=O)[C@H](CC(C)C)NC(=O)CNC(=O)[C@H](CCC(=O)O)NC(=O)[C@H](CSSC[C@H](NC(=O)[C@@H](N)Cc4ccc(O)cc4)C(=O)N[C@@H](CCC(N)=O)C(=O)N[C@@H](CCCCN)C(=O)N[C@@H](Cc4c[nH]c5ccccc45)C(=O)N[C@@H](CCCC)C(=O)N[C@@H](Cc4c[nH]c5ccccc45)C(=O)N[C@@H]([C@@H](C)O)C(=O)N2)NC(=O)[C@H](CSSC[C@@H](C(=O)N[C@@H](CCCNC(=N)N)C(=O)N[C@@H](CCCCN)C(=O)N[C@@H](CCC(=O)O)C(=O)N[C@H](C(N)=O)[C@@H](C)CC)NC(=O)[C@H](Cc2c[nH]c4ccccc24)NC(=O)[C@H](CC(C)C)NC(=O)[C@H](CCCCN)NC3=O)NC(=O)[C@H](C)NC(=O)[C@H](CCCNC(=N)N)NC1=O` [compound 879] reads 1.35 nM.

The values are drawn from patent US10344060B2 (priority 2013, dated 2019).
